Experimental findings from patent US20230105108A1, “COMPOUNDS FOR THE TREATMENT OF BACTERIAL INFECTIONS AND POTENTIATION OF ANTIBIOTICS” (GEORGIA STATE UNIVERSITY RESEARCH FOUNDATION, INC., priority 2019, published 2023) are described below.

The structures appear in SMILES notation. pIC50: −log10 of the molar value. Counter-ions that a name gives are not always drawn. Like-named read-outs stand apart in the source and are kept apart here.

The subject of one data set is B. subtilis. Description: MIC determination and sensitization fold on B. subtilis. Particulars: for Sensitization fold: erythromycin; for MIC: Bacillus subtilis. Type of data set: cell-based.
A further data set relates to M. smegmatis. Description: MIC on mycobacteria. Particulars: Mycolicibacterium smegmatis, read-out: MIC on mycobacteria. Type of data set: cell-based, Mycobacterium smegmatis.
The next data set concerns NIH3T3 cells. Nature of the data set: Cytotoxicity on mammalian cells (CCK-8), NIH3T3. Type of data set: cell-based. Conditions: 3T3 cell line; 24 h. The essentials: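 Cells seeded a day ahead to ~80% confluency, exposed to varied compound concentrations for 24 h at 37° C, 5% CO2. CCK-8 added for a further 2 h and OD 450 nm read; viability expressed as percent of untreated control.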

Data set [1] in a line: IC50 of Table 7 (cell line not stated). Type of data set: cell-based.
The subject of a further data set is E. coli strain NR698. Description: Sensitization of outer membrane leaky E. coli strain NR698. Type of data set: cell-based. The protocol: Ery is short for erythromycin. […] E. coli NR698 was cultured with the antibiotic at various concentrations in the presence or absence of bacterial sensitizer for 24 h at 37° C. Then bacterial growth density was determined by measuring OD600. […] Then the growth density/% was calculated based on OD600.
Bacteria culture and MICs determination: Gram-negative bacteria were cultured in Mueller Hinton II cation-adjusted broth. Gram-positive bacteria were cultured in LB broth. Mycobacterium smegmatis was cultured in Middlebrook 7H9 Broth. MICs of antibiotics itself were determined by performing two-fold serial dilutions of antibiotics. MICs of antibiotics in the presence of bacterial sensitizers were determined by performing two-fold serial dilutions of antibiotics with or without a constant concentration of bacterial sensitizers. The MICs tests were performed on 96-well plates with a final volume of 200 μl Mueller Hinton II cation-adjusted broth in each well. Each well was inoculated with 5×10^5 CFU/ml bacteria and was incubated for 24 h at 37° C. with continuous shaking of 200 rpm. The bacterial density was then determined by OD600. Bacterial growth %=OD600 of antibiotic treatment group/OD600 of antibiotic non-treatment group. MICs was determined as the concentrations that inhibit more than 90% of bacteria growth.

The test system of data set [2] is E. coli (lipid A part of LPS). Description: Dansyl-PMBN displacement assay. Type of data set: binding. Particulars: E. coli with 10 μM Dansyl-PMBN; sensitizer 0 to 200 μM. The procedure:
Panel (C) depicts a Dansyl-PMBN displacement assay. […] The fluorescent intensity of 10 μM Dansyl-PMBN in HEPES buffer was recorded as baseline F0. Fluorescent intensity/%=(F1−Fx)/(F1−F0). […] All results are triplicates.
Dansyl-PMBN displacement assay. Dansyl-PMBN was synthesized according to literature procedure. Dansyl-PMBN was dissolved in H2O to make 500 μM stock. Bacterial sensitizers were dissolved in ethanol to make 10 mM stock solutions. […] The E. coli stock was centrifuged at 3000 g for 10 min, washed with HEPES buffer (pH=7.2) and then centrifuged again to obtain bacteria pallet. The pallet was then gently resuspended in HEPES buffer to obtain a E. coli suspension with OD600 about 0.3. The experiment was performed on 96-well plates. Each well was supplied with 100 μl coli suspension with 10 μM Dansyl-PMBN, then to each well, different concentrations of bacterial sensitizers were added to achieve a final concentration ranging from 0 to 200 μM.
Mg^2+ can bridge between adjacent lipid A and enhance the membrane integrity. […] This phenomenon was also observed on MD-100. The culture medium for E. coli is Muller Hinton Broth (Cation adjusted), which already has at least 0.5 mM Mg^2+, so the “zero concentration point of Mg^2+” in FIG. 4 represents the amount of exogenous Mg^2+, not the total Mg^2+ in the culture medium. […] A fluorescent conjugate of a polymyxin-B derivative (Dansyl-PMBN, Scheme 3), which would show increased fluorescent intensity after binding to the lipid A part of LPS, was used to further probe this issue. In the presence of another component that can also binding to lipid A, Dansyl-PMBN would be replaced, leading to decreased fluorescent intensity.

Data set [3] relates to A. baumannii (ATCC 17978). Nature of the data set: MIC, sensitization fold and FIC index on A. baumannii. Type of data set: cell-based. Particulars: Acinetobacter baumannii, ATCC17978; A. baumannii; read-out: MIC of MD-124.
The subject of a further data set is K. pneumoniae (43816). Description: MIC, sensitization fold and FIC index on K. pneumoniae. Type of data set: cell-based. Conditions: Klebsiella pneumoniae; K. pneumoniae; read-out: MIC of MD-124.
In data set [4] the test system is NDM-1 expressing E. coli strain. Nature of the data set: microbe, parasite or virus in culture. Conditions: Escherichia coli; NDM-1 expressing E. coli; read-out: MIC of MD-124. Type of data set: cell-based.
Data set [5] has as its system mcr-1 over-expressing E. coli strains. Nature of the data set: microbe, parasite or virus in culture. Type of data set: cell-based.
Another data set deals with E. coli. Description: Ex vivo skin burn infection model, wild-type E. coli. Particulars: human skin burn, hypromellose gel, 24 hours; 4‰ (w/w) novobiocin, 1.5‰ MD-124. The procedure:
To achieve topical application, compounds were formulated as hypromellose gel. […] After that, skin was loaded with hypromellose gel with different antibiotics and cultured at 37° C. for 24 hours. After 24 hours incubation, the skin sample was homogenized and the supernatants were serially diluted and plated on agar plates, from which bacterial counts on the skin was calculated. […] 1‰ polymyxin B hypromellose gel was used as positive control.

For orientation: CC50 means the concentration that lowers cell viability or growth by half. A high value points to lower toxicity to the cells. What is called pIC50 is the negative decadic logarithm of the IC50, by convention in mol/L. Higher therefore signals a low IC50. Consider `Cc1cc(COc2ccc(C(=N)N)cc2)cc(COc2ccc(C(=N)N)cc2)c1` [MD-100, 4,4′-(((5-methyl-1,3-phenylene)bis(methylene))bis(oxy))dibenzimidamide dihydrochloride], for which the “growth density compared with the control (no treatment) group” value in the data set on B. subtilis (B. subtilis, 5.5 μg/ml alone, no antibiotic) stood at 80%. Besides, the Sensitization fold in the data set on B. subtilis (B. subtilis, compound at 6 μM) was 8 fold at 6 μM; in the data set with B. subtilis (B. subtilis, compound at 12 μM), 32-fold at 12 μM;. Besides, the MIC was determined as 50 µM in the data set with B. subtilis (24 h, B. subtilis, compound alone, read-out: MIC); 50 µg/mL in the data set with B. subtilis (wild type B. subtilis, read-out: MIC of DB2560); 12 µM with M. smegmatis. In the data set on NIH3T3 cells, the CC50 came to 100 µM. In data set [1], the pIC50 is 4.00. In addition, in the data set on E. coli strain NR698 (erythromycin, MD-100, 24 h), the “sensitization of E. coli strain NR698” value is given as “failed to sensitize”. In addition, in [2], the “displacement of Dansyl-PMBN (fluorescent intensity)” value was “able to displace Dansyl-PMBN although not as much as MD-124”.

`N=C(N)c1ccc(COc2cc(OCc3ccc(C(=N)N)cc3)cc(C(F)(F)F)c2)cc1` [MD-124, 4,4′-(((5-(trifluoromethyl)-1,3-phenylene)bis(oxy))bis(methylene)) dibenzimidamide dihydrochloride]: the MIC in the data set on M. smegmatis (M. smegmatis) was 12 µM; in data set [3], 25 µg/mL; in the data set on K. pneumoniae (43816), 25 µg/mL; in [4], 50 µg/mL; in data set [5] (Escherichia coli, mcr-1 over-expression E. coli, read-out: MIC of MD-124), 12.5 µg/mL. Also, the midpoint of cytotoxicity in the data set with NIH3T3 cells, the CC50, lay at 100 µM. The “MIC of Rif with 3 μg/ml MD-124” value was determined as 0.32 in data set [5] (strain mcr-1 A) and 1.25 in data set [5] (strain mcr-1 B). Further, the “Sensitization fold with 3 μg/ml MD-124” value in [5] (strain mcr-1 A, rifampicin, dihydrochloride) amounted to 16 fold; in data set [5] (strain mcr-1 B, rifampicin), 4 fold. In addition, the “MIC of Rif with 5 μg/ml MD-124” value in data set [5] (strain mcr-1 B) is reported as 0.16. Besides, the “Sensitization fold with 5 μg/ml MD-124” value in [5] (strain mcr-1 B, rifampicin) was 32 fold. Further, the Sensitization fold with E. coli strain NR698 (E. coli NR698 towards clarithromycin, 5 μg/ml sensitizer) is listed as 4 fold. The “displacement of Dansyl-PMBN (fluorescent intensity)” value in [2] was “steadily decreased in a concentration dependent fashion”. In the data set on E. coli, the “E. coli growth inhibition / bacterial load vs vehicle group” value is recorded as “neither 4‰ (w/w) novobiocin nor 1.5‰ MD-124 themselves achieved significant E. coli growth inhibition”.
